Activity calls are given as the source filed them.
Columns and labels:
[1] = system: Vero; test: cells; type: functional; details: Chlorocebus sabaeus
[2] = target: Heat shock protein HSP 90-alpha (Homo sapiens, UniProt P07900); type: functional, organism-based
[3] = target: Fatty acid synthase (Homo sapiens, UniProt P49327); test: inhibition of human FAS-TE enzyme activity – biochemical, endpoint fluorescence intensity, uHTS hits, dose response (AID 624327); type: functional;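 also: fluorescence from hydrolysis of an O-methyl fluorescein acyl ester substrate by the enzyme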
[4] = target: T1, Tyrosyl-DNA phosphodiesterase 2 (Homo sapiens, UniProt O95551); test: potency against TDP2 phosphodiesterase activity – biochemical, epi absorbance, IC50, dose response (AID 743297)
T1 sequence (O95551 whole entry): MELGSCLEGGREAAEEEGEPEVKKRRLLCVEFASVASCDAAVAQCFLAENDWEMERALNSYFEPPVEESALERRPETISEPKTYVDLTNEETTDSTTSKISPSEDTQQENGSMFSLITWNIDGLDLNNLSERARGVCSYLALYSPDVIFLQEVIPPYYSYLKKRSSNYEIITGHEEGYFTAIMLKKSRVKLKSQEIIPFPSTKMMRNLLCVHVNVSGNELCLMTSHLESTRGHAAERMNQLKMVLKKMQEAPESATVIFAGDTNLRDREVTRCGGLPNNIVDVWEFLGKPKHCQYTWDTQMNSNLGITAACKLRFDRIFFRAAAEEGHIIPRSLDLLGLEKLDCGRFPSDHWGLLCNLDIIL

[5] = target: Beta Lactamase (Pseudomonas aeruginosa, UniProt Q932Y6); test: BLA reporter interference, concentration series – BLA reporter cells, FRET fluorescence, artefact control for TLR9-MyD88 binding inhibitor project, dose response (AID 588341); type: cell-based;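 also: cell based assay in CHO-K1 cells stably expressing beta-lactamase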
[6] = target: RNA-editing ligase 1, mitochondrial (Trypanosoma brucei brucei, UniProt P86926); test: inhibition of trypanosome RNA editing ligase – biochemical, fluorescence, Trypanosoma brucei, dose response (AID 1117295); type: functional
Chain of RNA-editing ligase 1, mitochondrial (P86926 whole entry): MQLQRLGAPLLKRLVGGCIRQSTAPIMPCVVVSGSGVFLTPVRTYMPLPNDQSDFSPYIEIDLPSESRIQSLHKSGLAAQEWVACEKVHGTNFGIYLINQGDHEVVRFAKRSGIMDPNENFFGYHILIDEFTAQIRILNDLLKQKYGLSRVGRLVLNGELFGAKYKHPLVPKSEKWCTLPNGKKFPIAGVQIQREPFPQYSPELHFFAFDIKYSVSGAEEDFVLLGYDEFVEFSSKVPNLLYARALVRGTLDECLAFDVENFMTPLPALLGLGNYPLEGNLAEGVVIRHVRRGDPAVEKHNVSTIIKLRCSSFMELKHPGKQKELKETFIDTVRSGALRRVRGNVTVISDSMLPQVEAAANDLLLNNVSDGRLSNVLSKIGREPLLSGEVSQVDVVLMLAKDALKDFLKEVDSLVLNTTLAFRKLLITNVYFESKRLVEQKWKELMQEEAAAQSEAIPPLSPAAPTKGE

[7] = target: Intestinal-type alkaline phosphatase (Mus musculus, UniProt P24822); test: mouse intestinal alkaline phosphatase activators, dose response, biochemical, luminescence, uHTS hits (AID 488783); type: functional
[8] = target: MAP kinase-interacting serine/threonine-protein kinase 2 (Homo sapiens, UniProt Q9HBH9); type: functional
[9] = target: Megakaryocyte-associated tyrosine-protein kinase (Homo sapiens, UniProt P42679); type: functional;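 also: affinity measured as one member of a kinase panel (Navigating the Kinome) against MATK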
[10] = target: Serine/threonine-protein kinase Chk2 (Homo sapiens, UniProt O96017); type: functional;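 also: CHEK2 entry within a kinome-wide screening panel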
[11] = target: Tyrosine-protein kinase Srms (Homo sapiens, UniProt Q9H3Y6); type: functional;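 also: SRMS measured as one member of a kinome-wide kinase profiling panel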
[12] = target: Vascular endothelial growth factor receptor 3 (Homo sapiens, UniProt P35916); type: functional;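 also: value from a kinome-wide profiling panel, with FLT4 as the panel member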
Chain of Vascular endothelial growth factor receptor 3 (P35916 whole entry): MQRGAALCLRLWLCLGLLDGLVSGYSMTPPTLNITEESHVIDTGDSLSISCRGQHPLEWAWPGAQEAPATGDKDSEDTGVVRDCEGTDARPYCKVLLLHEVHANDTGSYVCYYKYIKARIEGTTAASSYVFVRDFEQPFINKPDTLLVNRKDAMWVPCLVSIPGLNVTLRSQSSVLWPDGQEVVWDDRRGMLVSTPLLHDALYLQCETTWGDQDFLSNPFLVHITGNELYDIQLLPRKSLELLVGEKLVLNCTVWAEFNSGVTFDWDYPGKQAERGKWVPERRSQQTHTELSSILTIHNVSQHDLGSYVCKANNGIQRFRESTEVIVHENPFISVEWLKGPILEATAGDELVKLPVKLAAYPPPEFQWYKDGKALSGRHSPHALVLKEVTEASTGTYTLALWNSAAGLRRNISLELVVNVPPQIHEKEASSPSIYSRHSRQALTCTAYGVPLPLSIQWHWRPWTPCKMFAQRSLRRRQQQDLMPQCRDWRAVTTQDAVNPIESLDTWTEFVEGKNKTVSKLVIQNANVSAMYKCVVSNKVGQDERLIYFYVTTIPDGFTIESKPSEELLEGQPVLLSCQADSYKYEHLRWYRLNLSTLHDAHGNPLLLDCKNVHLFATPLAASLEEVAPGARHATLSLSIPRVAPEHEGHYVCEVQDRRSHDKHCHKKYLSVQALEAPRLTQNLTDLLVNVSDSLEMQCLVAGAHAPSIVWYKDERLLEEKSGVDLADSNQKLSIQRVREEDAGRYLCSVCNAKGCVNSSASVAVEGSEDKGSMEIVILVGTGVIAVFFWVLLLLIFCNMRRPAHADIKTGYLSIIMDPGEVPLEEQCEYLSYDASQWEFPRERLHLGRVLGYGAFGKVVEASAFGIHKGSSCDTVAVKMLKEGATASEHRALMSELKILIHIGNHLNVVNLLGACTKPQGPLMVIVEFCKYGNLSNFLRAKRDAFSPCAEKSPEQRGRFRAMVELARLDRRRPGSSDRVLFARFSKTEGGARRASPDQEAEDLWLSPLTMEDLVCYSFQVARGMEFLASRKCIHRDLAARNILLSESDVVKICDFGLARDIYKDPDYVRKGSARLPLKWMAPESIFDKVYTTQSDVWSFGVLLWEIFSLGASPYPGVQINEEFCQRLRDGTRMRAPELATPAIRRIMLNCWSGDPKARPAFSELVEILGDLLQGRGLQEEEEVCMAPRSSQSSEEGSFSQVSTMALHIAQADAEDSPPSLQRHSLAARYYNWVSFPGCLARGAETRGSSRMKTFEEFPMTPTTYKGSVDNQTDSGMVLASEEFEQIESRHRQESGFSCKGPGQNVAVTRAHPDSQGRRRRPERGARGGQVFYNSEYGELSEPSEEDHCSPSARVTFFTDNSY

[13] = target: Serine/threonine-protein kinase TAO1 (Homo sapiens, UniProt Q7L7X3); type: functional
[14] = target: MAP kinase-activated protein kinase 3 (Homo sapiens, UniProt Q16644); type: functional;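 also: value comes from a kinome-wide profiling panel in which MAPKAPK3 is one of the panel members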
[15] = target: Casein kinase I isoform gamma-1 (Homo sapiens, UniProt Q9HCP0); type: functional;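 also: measured as the CSNK1G1 member of a kinome profiling panel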
Chain of Casein kinase I isoform gamma-1 (Q9HCP0 whole entry, canonical isoform): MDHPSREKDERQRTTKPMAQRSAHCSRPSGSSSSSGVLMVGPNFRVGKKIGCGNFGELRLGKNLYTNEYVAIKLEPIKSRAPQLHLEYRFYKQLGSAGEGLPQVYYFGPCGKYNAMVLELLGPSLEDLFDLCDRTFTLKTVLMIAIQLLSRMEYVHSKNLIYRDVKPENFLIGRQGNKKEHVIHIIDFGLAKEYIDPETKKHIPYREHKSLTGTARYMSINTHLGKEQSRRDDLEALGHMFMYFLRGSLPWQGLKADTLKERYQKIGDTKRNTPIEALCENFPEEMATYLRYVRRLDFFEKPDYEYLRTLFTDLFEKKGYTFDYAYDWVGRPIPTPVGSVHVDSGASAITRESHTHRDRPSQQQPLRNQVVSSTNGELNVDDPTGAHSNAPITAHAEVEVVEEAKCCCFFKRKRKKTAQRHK

[16] = target: Casein kinase II subunit alpha (Homo sapiens, UniProt P68400); type: functional
Chain of Casein kinase II subunit alpha (P68400 whole entry): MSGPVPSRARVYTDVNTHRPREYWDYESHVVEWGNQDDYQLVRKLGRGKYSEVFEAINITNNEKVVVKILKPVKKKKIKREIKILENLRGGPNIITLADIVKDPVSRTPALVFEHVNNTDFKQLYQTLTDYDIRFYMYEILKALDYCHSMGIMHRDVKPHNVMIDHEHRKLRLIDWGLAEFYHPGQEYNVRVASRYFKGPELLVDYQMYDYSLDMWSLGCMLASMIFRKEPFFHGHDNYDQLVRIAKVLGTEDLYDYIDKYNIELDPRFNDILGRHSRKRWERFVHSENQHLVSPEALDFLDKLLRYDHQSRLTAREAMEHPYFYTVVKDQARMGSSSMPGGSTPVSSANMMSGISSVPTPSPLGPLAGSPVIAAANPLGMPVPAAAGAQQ

[17] = target: Ribosomal protein S6 kinase alpha-5 (Homo sapiens, UniProt O75582); type: functional
[18] = target: Macrophage colony-stimulating factor 1 receptor (Homo sapiens, UniProt P07333); type: functional;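 also: value comes from the Navigating the Kinome screening panel, CSF1R member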
[19] = target: MAP kinase-activated protein kinase 2 (Homo sapiens, UniProt P49137); type: functional;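 also: measured as one member of a kinome-wide kinase panel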
[20] = target: Protein kinase C iota type (Homo sapiens, UniProt P41743); type: functional;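 also: measured within a kinome-wide kinase panel, PRKCI as panel member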
[21] = target: Serine/threonine-protein kinase MRCK alpha (Homo sapiens, UniProt Q5VT25); type: functional
Chain of Serine/threonine-protein kinase MRCK alpha (Q5VT25 whole entry): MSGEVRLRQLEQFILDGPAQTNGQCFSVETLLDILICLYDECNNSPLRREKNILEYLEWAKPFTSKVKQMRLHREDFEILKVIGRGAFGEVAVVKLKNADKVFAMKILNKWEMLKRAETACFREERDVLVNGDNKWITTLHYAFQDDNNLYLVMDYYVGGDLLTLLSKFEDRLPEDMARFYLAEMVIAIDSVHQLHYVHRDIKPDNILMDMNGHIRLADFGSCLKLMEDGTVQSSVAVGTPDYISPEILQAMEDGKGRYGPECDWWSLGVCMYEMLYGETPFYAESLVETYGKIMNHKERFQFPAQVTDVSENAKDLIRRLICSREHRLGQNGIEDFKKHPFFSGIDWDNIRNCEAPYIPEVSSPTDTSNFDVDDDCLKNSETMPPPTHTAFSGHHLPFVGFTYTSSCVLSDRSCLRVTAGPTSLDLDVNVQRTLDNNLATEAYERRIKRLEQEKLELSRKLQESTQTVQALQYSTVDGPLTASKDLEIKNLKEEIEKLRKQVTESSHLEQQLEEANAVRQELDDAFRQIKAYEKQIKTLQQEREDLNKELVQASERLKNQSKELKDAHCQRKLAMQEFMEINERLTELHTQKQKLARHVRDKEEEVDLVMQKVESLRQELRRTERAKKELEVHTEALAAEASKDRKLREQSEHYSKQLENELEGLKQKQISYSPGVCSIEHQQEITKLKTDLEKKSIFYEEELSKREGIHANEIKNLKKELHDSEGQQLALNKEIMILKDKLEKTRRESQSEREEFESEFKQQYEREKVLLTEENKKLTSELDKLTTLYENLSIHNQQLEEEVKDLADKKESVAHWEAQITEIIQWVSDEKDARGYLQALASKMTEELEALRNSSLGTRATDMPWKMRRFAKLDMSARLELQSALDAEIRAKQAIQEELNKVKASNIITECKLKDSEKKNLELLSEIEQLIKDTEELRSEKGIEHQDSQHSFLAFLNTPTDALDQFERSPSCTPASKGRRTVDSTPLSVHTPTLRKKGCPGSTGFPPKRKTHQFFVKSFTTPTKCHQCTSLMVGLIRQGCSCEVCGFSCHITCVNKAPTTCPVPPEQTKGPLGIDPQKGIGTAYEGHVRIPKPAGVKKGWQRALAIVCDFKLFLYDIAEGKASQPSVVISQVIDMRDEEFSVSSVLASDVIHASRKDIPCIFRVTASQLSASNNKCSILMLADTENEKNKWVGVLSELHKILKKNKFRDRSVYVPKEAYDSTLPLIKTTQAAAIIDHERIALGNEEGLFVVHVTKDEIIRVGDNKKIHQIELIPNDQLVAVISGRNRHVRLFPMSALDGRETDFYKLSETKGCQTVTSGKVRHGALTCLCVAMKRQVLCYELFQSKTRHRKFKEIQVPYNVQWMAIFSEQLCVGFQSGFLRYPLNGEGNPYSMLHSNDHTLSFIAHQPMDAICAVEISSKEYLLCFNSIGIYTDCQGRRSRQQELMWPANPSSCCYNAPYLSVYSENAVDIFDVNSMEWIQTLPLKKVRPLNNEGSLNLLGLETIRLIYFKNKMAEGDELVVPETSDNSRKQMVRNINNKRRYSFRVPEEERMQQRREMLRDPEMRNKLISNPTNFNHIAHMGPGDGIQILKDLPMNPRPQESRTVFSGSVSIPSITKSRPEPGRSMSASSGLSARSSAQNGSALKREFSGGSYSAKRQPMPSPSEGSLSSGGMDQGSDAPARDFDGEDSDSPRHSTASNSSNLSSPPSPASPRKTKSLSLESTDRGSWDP

[22] = target: cGMP-dependent protein kinase 1 (Homo sapiens, UniProt Q13976); type: functional;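 also: value from a kinome panel screen with PRKG1 as the panel member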
[23] = target: Mitogen-activated protein kinase kinase kinase 20 (Homo sapiens, UniProt Q9NYL2); type: functional
[24] = target: Protein kinase C delta type (Homo sapiens, UniProt Q05655); type: functional
[25] = target: Ribosomal protein S6 kinase beta-1 (Homo sapiens, UniProt P23443); type: functional;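 also: measured as one member of a kinome-wide profiling panel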
[26] = target: Cyclin-dependent kinase 1 (Homo sapiens, UniProt P06493); type: functional;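 also: Kinome-wide panel profiling, with the target listed as panel member CDC2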
[27] = target: High affinity nerve growth factor receptor (Homo sapiens, UniProt P04629); type: functional;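 also: NTRK1 tested as one member of a kinome-wide profiling panel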
[28] = target: Cell division cycle 7-related protein kinase (Homo sapiens, UniProt O00311); type: functional;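 also: value obtained from a kinome-wide kinase panel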
[29] = target: Calcium/calmodulin-dependent protein kinase type II subunit delta (Homo sapiens, UniProt Q13557); type: functional
[30] = target: Calcium/calmodulin-dependent protein kinase type II subunit gamma (Homo sapiens, UniProt Q13555); type: functional
Chain of Calcium/calmodulin-dependent protein kinase type II subunit gamma (Q13555 whole entry): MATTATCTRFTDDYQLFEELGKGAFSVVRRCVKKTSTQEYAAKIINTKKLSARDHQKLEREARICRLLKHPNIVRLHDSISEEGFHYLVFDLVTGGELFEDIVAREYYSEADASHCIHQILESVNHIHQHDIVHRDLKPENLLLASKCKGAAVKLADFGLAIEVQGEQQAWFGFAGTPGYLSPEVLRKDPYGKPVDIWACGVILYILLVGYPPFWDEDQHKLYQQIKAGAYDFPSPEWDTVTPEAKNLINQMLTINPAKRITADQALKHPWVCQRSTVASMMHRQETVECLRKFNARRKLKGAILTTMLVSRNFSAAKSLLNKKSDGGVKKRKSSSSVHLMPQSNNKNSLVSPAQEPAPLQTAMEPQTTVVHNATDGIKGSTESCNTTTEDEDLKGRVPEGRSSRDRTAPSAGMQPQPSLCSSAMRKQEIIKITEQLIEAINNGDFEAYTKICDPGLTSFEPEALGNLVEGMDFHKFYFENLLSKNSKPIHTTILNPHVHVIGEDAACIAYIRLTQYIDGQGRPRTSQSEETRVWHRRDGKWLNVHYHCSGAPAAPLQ

[31] = target: Death-associated protein kinase 3 (Homo sapiens, UniProt O43293); type: functional;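 also: measured as one member of a kinome-wide profiling panel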
[32] = target: Aurora kinase B (Homo sapiens, UniProt Q96GD4); type: functional
[33] = target: Mast/stem cell growth factor receptor Kit (Homo sapiens, UniProt P10721); type: functional;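 also: KIT entry within a kinase panel assay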
[34] = target: Nonstructural protein 1 (Influenza A virus, UniProt Q194T2); type: functional, Influenza A virus (A/California/07/2009(H1N1))
[35] = target: T2, Caspase-3 (Homo sapiens, UniProt P42574); test: Dose-response confirmation of uHTS inhibitor hits of Sentrin-Specific Protease 8 in a Caspase-3 Fluorescence assay.; type: functional
T2 sequence (P42574 whole entry): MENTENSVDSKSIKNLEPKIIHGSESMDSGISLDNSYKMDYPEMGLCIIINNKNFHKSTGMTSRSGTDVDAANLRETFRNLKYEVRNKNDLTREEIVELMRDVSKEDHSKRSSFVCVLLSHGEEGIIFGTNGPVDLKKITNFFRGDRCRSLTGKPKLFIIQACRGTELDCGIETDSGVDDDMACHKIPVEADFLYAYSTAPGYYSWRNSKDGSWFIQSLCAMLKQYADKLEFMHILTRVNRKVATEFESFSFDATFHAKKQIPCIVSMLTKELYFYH

Structure (SMILES): CC(=O)N(C1=C(Cl)C(=O)c2ccccc2C1=O)C1CCCCC1
- CC50 [1]: 13300 nM (active)
- AC50 [2]: 524 nM (active)
- IC50 [3]: 3020 nM (active)
- IC50 [4]: 19500 nM (inactive)
- IC50 [5]: 5300 nM (active)

Structure (SMILES): Oc1ccc(-c2cn3c(n2)SCC3)cc1O
- IC50 [6]: > 96600 nM (inactive)
- EC50 [7]: 21000 nM (active)

Structure (SMILES): O=C1Nc2ccc3ncsc3c2C1=CNc1ccc(S(=O)(=O)Nc2ccccn2)cc1
- Ki [8]: 126 nM (active)
- Ki [9]: 200 nM (active)
- Ki [10]: 158 nM (active)
- Ki [11]: > 1580 nM (inactive)
- Ki [12]: 3.16 nM (active)
- Ki [13]: 1580 nM (active)
- Ki [14]: 7940 nM (active)
- Ki [15]: 2510 nM (active)
- Ki [16]: 501 nM (active)
- Ki [17]: 794 nM (active)
- Ki [18]: 251 nM (active)
- Ki [19]: 1260 nM (active)
- Ki [20]: > 5010 nM (inactive)
- Ki [21]: > 10000 nM (inactive)
- Ki [22]: 126 nM (active)
- Ki [23]: 200 nM (active)
- Ki [24]: 1260 nM (active)
- Ki [25]: 126 nM (active)
- Ki [26]: 20 nM (active)
- Ki [27]: 20 nM (active)
- Ki [28]: 126 nM (active)
- Ki [29]: 79.4 nM (active)
- Ki [30]: 200 nM (active)
- Ki [31]: 79.4 nM (active)
- Ki [32]: 3.98 nM (active)
- Ki [33]: > 1260 nM (inactive)

Structure (SMILES): Cc1ccc(NC2=C/C(=N\S(=O)(=O)c3cccs3)c3ccccc3C2=O)c(C)c1
- IC50 [34]: 6480 nM (active)

Structure (SMILES): COc1ccc(/C=N/NC(=O)c2nn(-c3ccccc3)c(=O)c3c(N)scc23)cc1
- IC50 [35]: 2150 nM (active)

Reference: ChEMBL document CHEMBL1201862, “PubChem BioAssay data set” (2004)
